The structures appear in SMILES notation.

For `COC(=O)c1cccc(N)c1NCc1ccc(-c2ccccc2C#N)cc1`, the melting point lay within 110 to 111 °C.

Molecule `CC(NC(=O)Cc1cc(F)cc(F)c1)C(=O)C1(N)N=C(N2CCCCC2)c2ccccc2N(C)C1=O` (stereo not drawn) displayed a melting point of 154 to 160 °C.

On to `CCOC(=O)c1csc(Nc2nc(C(C)(C)C)c(O)c(C(C)(C)C)n2)n1`, for which the melting point fell in the range of 204 to 206 °C.

`CCCc1c(OCCc2ccc3cc(O)c(O)cc3c2)ccc(C(=O)O)c1O`: the melting point lay in the range of 216 to 218 °C.

As for `Cc1cc2c(cc1C)C(=O)c1c(N)cccc1C2=O`, the melting point is 222 °C.

In turn, `Nc1nc(-c2ccccc2)nc2cccc(Oc3ccccc3)c12` had a melting point of 190 to 191 °C.

The molecule `CC12CCC(C(=O)CC1=O)C2(C)C` (stereo not drawn) had a melting point of 220 °C.

Molecule `COC(=O)c1cc(Cl)c(N)c(Cl)c1` gave a melting point of 72 to 74 °C.

As to `COCOc1cccc(COc2cc3c(cc2-c2cc(C=CC(=O)O)ccc2OC)C(C)(C)CCC3(C)C)c1`, the melting point lay in the range of 144 to 146 °C.

With `CCCc1ccc(-c2c(-c3ccc(S(C)(=O)=O)cc3)cnn(CC(F)(F)F)c2=O)cc1`, the melting point fell in the range of 64 to 66 °C.

Molecule `COC(=O)CS(=O)(=O)C1CCCCC1Sc1cc(C(C)(C)C)c(O)c(C(C)(C)C)c1` (stereo not drawn) gave a melting point of 93 °C.

`O=C1CCCN1[C@@H]1c2cc(C(F)(F)C(F)(F)C(F)(F)F)ccc2OC(CF)(CF)[C@H]1O` (relative stereo) yielded a melting point of 174 to 175 °C.

`CCOCc1nc(C(C)(C)O)c(C(=O)OCc2oc(=O)oc2C)n1Cc1ccc(-c2ccccc2-c2nnn[nH]2)cc1` showed a melting point of 166 to 168 °C.

In the case of `O=C(O)[C@@H]1Cc2cc(O)c(O)cc2CN1C(=O)c1ccccc1`, the melting point lay in the range of 189 to 192 °C.

`Cc1ncc2c(c1O)COC2(C)c1ccccc1` (stereo not drawn) displayed a melting point of 245 °C.

`CCO/C(=C\c1ccc(C#N)cc1)C(=O)O` displayed a melting point of 171 to 172 °C.

`COc1ccc2c(c1)C(=O)Cc1c(cccc1C(=O)O)S2` had a melting point of 157 to 160 °C.

Molecule `O=CC1=C(Cl)c2cccc(Cl)c2CC1` displayed a melting point of 83.5 to 84 °C.

The molecule `CC(NC(=O)CCCBr)c1ccccc1` (stereo not drawn) registered a melting point of 62 to 63 °C.

`CC(=O)Nc1c(I)c(NC(C)=O)c(I)c(C(=O)OCC(O)CO)c1I` (stereo not drawn) displayed a melting point of 207 °C.

`Cc1c[nH]c2c(/C=C/C#N)cccc12` came in with a melting point of 225 to 227 °C.

As for `CCC(NC(=O)C(F)F)c1ccc(Cl)c2nc3n(c12)CCCN3c1c(Cl)cc(Cl)cc1Cl` (stereo not drawn), the melting point was 211 to 213 °C.

As for `CO[C@H]1CC[C@H](N(C)C(=S)c2ccc3nonc3c2)CC1`, the melting point was 137 to 138 °C.

On to `O=C1CC(c2cccc(-c3nc(CO)co3)c2)=Nc2ccc(-n3cccc3)cc2N1`, for which the melting point lay within 240 to 242 °C.

`O=C1CCNc2c1cc(Cl)cc2[N+](=O)[O-]` returned a melting point of 132 to 135 °C.

`CC(C)(C)c1cc(C2=NOC(CC(=O)Nc3ccc([N+](=O)[O-])cc3)C2)cc(C(C)(C)C)c1O` (stereo not drawn) came in with a melting point of 149 to 151 °C.

In turn, `Cc1nc(C(F)(F)F)c(C(=O)Nc2ccccc2-c2cc(F)c(F)c(F)c2)s1` displayed a melting point of 148 to 152 °C.

Turning to `CCOC(=O)OC1=C([C@H]2CC[C@H](c3ccc(Cl)cc3)CC2)C(=O)c2ccccc2C1=O`, the melting point fell in the range of 145 to 149 °C.

Consider `Nc1cccc(S(=O)(=O)Nc2ccccc2NNC=O)c1`, for which the melting point stood at 120 °C.

The molecule `Cc1cc2c(cc1-c1cc(C=CC(=O)O)n(C)c1)C(C)(C)CCC2(C)C` registered a melting point of 185 to 186 °C.

For `O=C1Nc2ccccc2N(C(=O)CN2CCCCC2CN2CCOCC2)c2ccccc21` (stereo not drawn), the melting point fell in the range of 194 to 195 °C.

The molecule `CC(C)(C)c1ccc(CN=C=S)cc1` registered a melting point of 44 to 47 °C.

`CCc1ccc(C(=NO)c2ccc(Cl)cc2)c(O)c1` gave a melting point of 159 to 161 °C.

`O=c1c(CCCCCCCc2ccncc2)cc2cccnc2n1-c1cccc([N+](=O)[O-])c1` yielded a melting point of 189 to 192 °C.

`COc1ccc(S(=O)(=O)n2ccc3ccnc(-c4ccc(N(C)C)cc4)c32)cc1` displayed a melting point of 112 to 114 °C.

Turning to `CC1(C)C(=NOCc2ccccc2)C(c2ccccc2)=C1c1ccc(S(C)(=O)=O)cc1`, the melting point was in the range of 119 to 121 °C.

As for `O=C1C(N2CCOCC2)=CCCN1c1ccc(I)cc1`, the melting point lay in the range of 138 to 148 °C.

The molecule `CSC(=N[N+](=O)[O-])N(C)SC(Cl)(Cl)Cl` yielded a melting point of 75 to 78 °C.

Molecule `CCOC(=O)C1(c2cccc(OCc3ccc4c(ccc(=O)n4C)c3)c2)CCOCC1` yielded a melting point of 109 to 110 °C.

In the case of `CSCc1sccc1S(=O)(=O)N(C)c1cccc2cc(-c3nccs3)[nH]c12`, the melting point stood at 213 °C.

Consider `O=[N+]([O-])c1ccc(-c2nc(CO)no2)cc1`, for which the melting point lay within 155 to 156 °C.

For the molecule `Nc1ccc(CCC(=O)Nc2ccc(C(=O)c3ccccc3)cc2)cc1N`, the melting point is 156 to 157 °C.

For `O=S(=O)(F)c1cc(Cl)c(Cl)cc1Cl`, the melting point is 80 to 83 °C.

Molecule `Cc1nc(N2CCN(Cc3cccc(F)c3)C2=O)sc1C(=O)NCc1ccccc1` displayed a melting point of 155 to 156 °C.

The molecule `COC(=O)c1ccccc1C(=O)c1ccc(-n2ccnc2)cc1` gave a melting point of 134 to 136 °C.

Regarding `CCCCCCCCCCC1COc2c(C(=O)OCC)sc(C(=O)OCC)c2O1` (stereo not drawn), the melting point is 89 to 90 °C.

Consider `CC(=O)c1ccccc1Nc1ccc(O)cc1`, for which the melting point is 168 to 169 °C.

The molecule `O=C(C=Cc1ccc(CNCC2CCCCC2O)cc1)Nc1ccc(-c2ccc(Cl)cc2)cc1` (stereo not drawn) had a melting point of 210 to 211 °C.

The molecule `ClCc1cn2cc(Br)ccc2n1` came in with a melting point of 125 to 126 °C.

In the case of `CS(=O)(=O)NCCCC1COCc2nc3c(N)nc4ccccc4c3n21` (stereo not drawn), the melting point was 249 to 250 °C.

In the case of `CC(C)(C)c1nn(-c2ccc([N+](=O)[O-])cc2Cl)c(=O)o1`, the melting point was found to be 98 °C.

The molecule `CC(NC(=O)CN1CCCC1=O)C(=O)N1CC(=O)NC1(C)C` (stereo not drawn) returned a melting point of 198 to 200 °C.

The molecule `CC(C)[C@H](NC(=O)[C@H](C)NC(=O)OCc1ccccc1)[C@@H](O)c1c(-c2ccccc2)c1=O` returned a melting point of 156 to 158 °C.

Take `COc1cc(OC)c2c(=O)[nH]c(-c3cccc(N4CCN(CCS(C)(=O)=O)CC4)n3)nc2c1`: the melting point fell in the range of 243 to 244 °C.

The molecule `CCC(Oc1ccc(C(C)(C)CC)cc1C(C)(C)CC)C(=O)Nc1cc(Cl)c2[nH]c(=O)[nH]c2c1O` (stereo not drawn) gave a melting point of 201 to 204 °C.

The molecule `CCCCn1c(=O)n(CCC)c(=O)c2[nH]c(C)nc21` had a melting point of 174 to 175 °C.

As for `CCCCCCCCCCCCCCCCOCC(O)CN(CC(O)COCC(O)CO)C(=O)CCCCCCCCCCCCCCC` (stereo not drawn), the melting point lay in the range of 78.2 to 79 °C.

Consider `O=S(=O)(Nc1cccc(CCOCc2ccc(-c3ccc(Cl)c(Cl)c3)cc2)c1)C(F)(F)F`, for which the melting point lay in the range of 74 to 75 °C.

Turning to `Cn1nc(Cc2ccc(O)c(Cl)c2Cl)c(Cl)c1OC(F)F`, the melting point was in the range of 127 to 128 °C.

In turn, `COc1cc(Nc2nc3cccc(-c4cccc(C)c4)c3o2)cc(OC)c1OC` displayed a melting point of 153 to 155 °C.

Regarding `CC(C)NC(=O)Nc1ccnc(Cl)c1`, the melting point is 142 to 146 °C.

On to `COC(=O)c1nn(C2CCCCO2)cc1NC(=O)c1ccccn1` (stereo not drawn), for which the melting point is 131 to 132 °C.

Turning to `COC(=O)c1ccc(OC)c(NC(=NCl)c2ccc(Cl)cc2Cl)c1`, the melting point came out at 120 °C.
